Patent US6579881B2 (Eisai Co., Ltd., priority 1997, dated 2003)
Where a name gives a salt, the structure may show the parent alone.

Experiments:
[1] = target: serotonin 2 receptor (Rattus norvegicus, UniProt P14842); assay: Binding test on [3H] ketanserin (serotonin 2 receptor); settings: [3H] ketanserin 0.3 nM, receptor fraction of rat cerebral cortex; read-out: 5HT2
Protocol: Use was made of SD rats aged 6 to 8 weeks.
The rats were sacrificed by dcapitation to extirpate the cerebra.
The hippocampus was mixed with 50 times (on the wet weight basis) as much a 0.32 M sucrose solution while the cortex was mixed with 10 times as much the same solution. Each mixture was homogenized by using a Teflon glass homogenizer and centrifuged at 1,000×g for 10 min. The supernatant thus obtained was further centrifuged at 20,000×g for 20 min. The obtained precipitate was re-suspended in 50 times (based on the intial wet weight; in the case of the hippocampus) or 10 times (in the case of the cortex) as much a 50 mM Tris hydrochloride (pH 7.4) and incubated at room temperature for 30 min. After centrifuging at 20,000×g for 20 min, the obtained precipitate was further suspended and centrifuged twice each in the same manner. The precipitate thus obtained was suspended in 100 times (based on the initial wet weight; in the case of the hippocampus) or 20 times (in the case of the cortex) as much a 50 mM Tris hydrochloride solution (pH 7.4) to thereby give a receptor fraction. This receptor fraction was stored at −80° C. until using.
(Binding Test on [^3H] Ketanserin)
Next, it was filtered through a glass filter with the use of a cell harvester. After washing the glass filter with 50 mM Tris hydrochloride (pH 7.4), the radioactivity of the receptor was measured with a liquid scintillation counter. The binding detected in the presence of 1 μM of methysergide was referred to as the nonspecific binding.
IC50 was calculated by the probit method, while Ki was determined in accordance with the following formula:
wherein c represents the concentration of the radioisotope-labeled compound, and Kd represents the dissociation constant of the radioisotope-labeled compound with respect to the receptor determined by Scatchard's analysis.

[2] = target: T1, serotonin 1A receptor (Rattus norvegicus, UniProt P19327); assay: Binding test on [3H] 8-hydroxy-dipropylaminotetralin (serotonin 1A receptor); settings: [3H] 8-OH-DPAT 0.5 nM, receptor fraction of rat hippocampus; read-out: 5HT1a
T1 construct: To the receptor fraction of the hippocampus were added a test compound and 0.5 nM of [^3H]; 8-hydroxy-dipropylaminotetralin; from tissue; host or cells: SD rat hippocampus, membrane (receptor) fraction
T1 sequence (P19327 1-422): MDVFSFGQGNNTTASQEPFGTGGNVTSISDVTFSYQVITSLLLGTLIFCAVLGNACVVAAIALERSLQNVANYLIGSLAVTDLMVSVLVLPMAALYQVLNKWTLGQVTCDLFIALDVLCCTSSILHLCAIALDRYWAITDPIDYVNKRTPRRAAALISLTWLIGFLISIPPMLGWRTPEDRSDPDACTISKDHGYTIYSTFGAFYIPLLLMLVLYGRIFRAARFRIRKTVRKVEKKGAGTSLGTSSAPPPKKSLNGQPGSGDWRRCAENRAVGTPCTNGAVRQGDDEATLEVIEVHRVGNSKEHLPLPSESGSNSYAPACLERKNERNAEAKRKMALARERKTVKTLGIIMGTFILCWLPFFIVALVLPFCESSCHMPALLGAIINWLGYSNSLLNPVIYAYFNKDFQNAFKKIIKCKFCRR

[3] = target: α1 adrenalin receptor; assay: Binding test on [3H] prazosin (α1 adrenalin receptor); design: species or system rat; settings: [3H] prazosin about 0.2 nM, receptor fraction of rat cerebral cortex

serotonin 2 receptor, sequence (P14842 whole entry): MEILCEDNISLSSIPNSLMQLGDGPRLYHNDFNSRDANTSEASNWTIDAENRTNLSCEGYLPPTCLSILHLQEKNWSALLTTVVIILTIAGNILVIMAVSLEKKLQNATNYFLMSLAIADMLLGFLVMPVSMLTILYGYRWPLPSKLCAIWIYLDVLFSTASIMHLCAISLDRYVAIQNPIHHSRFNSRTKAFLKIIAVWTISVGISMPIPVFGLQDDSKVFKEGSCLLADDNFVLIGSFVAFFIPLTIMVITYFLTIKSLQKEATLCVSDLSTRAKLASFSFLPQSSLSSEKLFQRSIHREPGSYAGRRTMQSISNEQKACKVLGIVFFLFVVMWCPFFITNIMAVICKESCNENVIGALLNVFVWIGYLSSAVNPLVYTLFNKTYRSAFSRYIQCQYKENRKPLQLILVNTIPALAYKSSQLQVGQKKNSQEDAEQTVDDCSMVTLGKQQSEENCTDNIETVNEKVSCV

SMILES | melting point | Ki [1] | Ki [2] | Ki [3]
NCc1ccc2ccn(C3CCN(CCc4ccccc4F)CC3)c2c1 [Example 348, 1-[1-(2-fluorophenethyl)piperidin-4-yl]-6-aminomethylindole] | 86 to 87 °C | – | – | –
O=C(CCO)NCc1ccc2ccn(C3CCN(CCc4ccccc4F)CC3)c2c1 [Example 382, 1-[1-(2-fluorophenethyl)piperidin-4-yl]-6-(3-hydroxypropionylamino)methylindole] | 58 to 59 °C | 3.31 nM | 7.59 nM | 163 nM
O=[N+]([O-])c1ccc(CCN2CCC(N3CCc4ccccc43)CC2)cc1 [Example 29, 1-[1-(4-nitrophenethyl)piperidin-4-yl]indoline] | 95 to 97 °C | 36.5 nM | – | –
CC(=O)NCc1ccc2ccn(C3CCN(CCc4ccc(Br)cc4)CC3)c2c1 [Example 389, 1-[1-(4-bromophenethyl)piperidin-4-yl]-6-acetamidomethylindole] | 140 to 141 °C | 15.5 nM | 0.53 nM | –
NC(=O)Cc1ccc2ccn(C3CCN(CCc4ccc(F)cc4)CC3)c2c1 [Example 305, 1-[1-(4-fluorophenethyl)piperidin-4-yl]-6-carbamoylmethylindole] | 159.1 to 160.8 °C | 3.29 nM | 0.06 nM | 35.9 nM
O=C(NCc1ccc2ccn(C3CCN(CCc4ccc(F)cc4)CC3)c2c1)n1ccnc1 (as salt: oxalate) [Example 368, 1-[1-(4-fluorophenethyl)piperidin-4-yl]-6-imidazocarbonylaminomethylindole] | 156 to 157 °C | – | – | –
O=C(CCN1CCCCC1)NCc1ccc2ccn(C3CCN(CCc4ccc(F)cc4)CC3)c2c1 (as salt: oxalate) [Example 379, 1-[1-(4-fluorophenethyl)piperidin-4-yl]-6-[3-(piperidin-1-yl)propionylamino]methylindole] | 108 to 109 °C | – | – | –
O=C(CCl)NCc1ccc(CCN2CCC(N3CCc4ccccc43)CC2)cc1 (as salt: oxalate) [Example 37, 1-[1-(4-chloroacetamidomethylphenethyl)piperidin-4-yl]indoline] | 138 °C | – | – | –
CC(=O)NCc1ccc2ccn(C3CCN(CCCCc4ccc(F)cc4)CC3)c2c1 [Example 356, 1-{1-[4-(4-fluorophenyl)butyl]-piperidin-4-yl}-6-acetamidomethylindole] | 59 to 60 °C | > 20 nM | 1.52 nM | –
O=C(CN1CCCCC1)NCc1ccc2ccn(C3CCN(CCc4ccc(F)cc4)CC3)c2c1 (as salt: oxalate) [Example 376, 1-[1-(4-fluorophenethyl)piperidin-4-yl]-6-[(piperidin-1-yl)acetamido]methylindole] | 113 to 114 °C | – | – | –
COc1ccc2c(c1)N(C1CCN(CCc3ccc(F)cc3)CC1)C(C)(C)C2 (as salt: oxalate) [Example 396, 2,2-Dimethyl-1-[1-(4-fluorophenethyl)piperidin-4-yl]-6-methoxyindoline] | 228 °C (dec.) | – | – | –
COc1ccc2c(c1)N(C1CCN(CCc3cccs3)CC1)CCC2 (as salt: hydrochloride) [Example 270, 1-{1-[2-(2-Thienyl)ethyl]piperidin-4-yl}-7-methoxy-1,2,3,4-tetrahydroquinoline Hydrochloride] | 232 to 235 °C | – | – | –
OCCOc1ccc2c(c1)CCCC2C1CCN(CCc2ccc(F)cc2)CC1 (stereo not shown) (as salt: hydrochloride) [Example 278, 1-[2-(4-fluorophenyl)ethyl]-4-[6-(2-hydroxy)ethoxy-1,2,3,4-tetrahydronaphthalen-1-yl]piperidine] | 213 to 215 °C (dec.) | – | – | –
COc1ccc2c(c1C)N(C1CCN(CCc3ccc(F)cc3)CC1)CCC2 (as salt: oxalate) | 176 to 178 °C | – | – | –
O=C(CF)NCc1ccc2ccn(C3CCN(CCc4ccccc4F)CC3)c2c1 (as salt: oxalate) [Example 381, 1-[1-(2-fluorophenethyl)piperidin-4-yl]-6-fluoroacetamidomethylindole] | 168 to 169 °C | – | – | –
CC(=O)NCc1ccc2ccn(C3CCN(CCc4ccc(F)cc4F)CC3)c2c1 (as salt: oxalate) [Example 357, 1-[1-(2,4-difluorophenethyl)piperidin-4-yl]-6-acetamidomethylindole] | 103 to 106 °C | – | – | –
COC(=O)NCc1ccc2ccn(C3CCN(CCc4ccc(F)cc4)CC3)c2c1 [Example 384, 1-[1-(4-fluorophenethyl)piperidin-4-yl]-6-methoxycarbonylaminomethylindole] | 117 to 118 °C | 0.25 nM | 0.13 nM | –
CN(C)CCC(=O)NCc1ccc2ccn(C3CCN(CCc4ccc(F)cc4)CC3)c2c1 (as salt: oxalate) [Example 378, 1-[1-(4-fluorophenethyl)piperidin-4-yl]-6-(3-N,N-dimethylaminopropionyl)aminomethylindole] | 104 to 105 °C | – | – | –

SMILES | melting point | Ki [1] | Ki [2] | Ki [3]
CC(=O)N(C)Cc1ccc2ccn(C3CCN(CCc4ccc(F)cc4)CC3)c2c1 (as salt: oxalate) [Example 359, 1-[1-(4-fluorophenethyl)piperidin-4-yl]-6-N-methylacetamidomethylindole] | 148 to 149 °C | – | – | –
COc1ccc2c(c1OC)N(C1CCN(CCc3ccc(F)cc3)CC1)CCC2 (as salt: hydrochloride) | 213 to 215 °C | – | – | –
COc1ccc2c(c1)N(C1CCN(CC(=O)c3ccc(F)cc3)CC1)CCC2 (as salt: hydrochloride) | 153 to 155 °C (dec.) | – | – | –
CC(C)NC(=O)Cc1ccc2ccn(C3CCN(CCc4ccc(F)cc4)CC3)c2c1 [Example 286, 1-[1-(4-fluorophenethyl)piperidin-4-yl]-6-(N-isopropylcarbamoylmethyl)indole] | 146 to 148 °C | 3.12 nM | 3.74 nM | –
NC(=O)Cc1ccc2ccn(C3CCN(CCc4ccc(F)cc4F)CC3)c2c1 [Example 299, 1-[1-(2,4-difluorophenethyl)piperidin-4-yl]-6-carbamoylmethylindole] | 156.9 to 157.8 °C | 2.54 nM | 0.11 nM | –
CCN1CCN([C@@H]2c3ccccc3CC2N(C)Cc2ccc(F)cc2)CC1 (stereo partly shown) (as salt: hydrochloride) [Example 254] | 196 to 198 °C | – | – | –
CS(=O)(=O)NCc1ccc(CCN2CCC(N3CCc4ccccc43)CC2)cc1 (as salt: oxalate) [Example 38, 1-[1-(4-methanesulfonylaminomethylphenethyl)piperidin-4-yl]indoline] | 199 °C | – | – | –
COc1ccc2c(c1)N(C1CCN(CCc3ccc(F)cc3)CC1)CCC2 (as salt: hydrochloride) | 258 °C (dec.) | – | – | –
COc1ccc2c(c1)N(C1CCN(CCCC#N)CC1)CCC2 (as salt: hydrochloride) [Example 269, 1-[1-(4-Cyanopropyl)piperidin-4-yl]-7-methoxy-1,2,3,4-tetrahydroquinoline Hydrochloride] | 180 to 183 °C (dec.) | – | – | –
CCS(=O)(=O)Nc1ccc2ccn(C3CCN(CCc4ccc(F)cc4)CC3)c2c1 [Example 335, 1-[1-(4-fluorophenethyl)piperidin-4-yl]-6-(N-methylmethanesulfonylamino)indole] | 192 to 194 °C | – | – | –
CN(C)CC(=O)NCc1ccc2ccn(C3CCN(CCc4ccc(F)cc4)CC3)c2c1 (as salt: oxalate) [Example 375, 1-[1-(4-fluorophenethyl)piperidin-4-yl]-6-(N,N-dimethylaminoacetamido)methylindole] | 112 to 113 °C | – | – | –
O=C(Cc1ccc2ccn(C3CCN(CCc4ccc(F)cc4)CC3)c2c1)N1CCCC1 (as salt: oxalate) [Example 298, 1-[1-(4-fluorophenethyl)piperidin-4-yl]-6-(tetramethylenecarbamoylmethyl)indole Oxalate] | 171.5 to 172.1 °C | – | – | –
O=C1CCCN1Cc1ccc2ccn(C3CCN(CCc4ccc(F)cc4)CC3)c2c1 (as salt: oxalate) [Example 358, 1-[1-(4-fluorophenethyl)piperidin-4-yl]-6-(2-pyrrolidon-1-yl)methylindole] | 179 to 180 °C | – | – | –
NC(=O)c1ccc2ccn(C3CCN(CCc4ccc(F)cc4)CC3)c2c1 [Example 337, 1-[1-(4-fluorophenethyl)piperidin-4-yl]-6-carbamoylindole] | 238 to 240 °C | > 20 nM | < 0.2 nM | –
CNCc1ccc2ccn(C3CCN(CCc4ccc(F)cc4)CC3)c2c1 (as salt: oxalate) [Example 361, 1-[1-(4-fluorophenethyl)piperidin-4-yl]-6-N-methylaminomethylindole] | 195 to 196 °C | – | – | –
OCCOc1ccc(CCN2CCC(N3CCc4ccccc43)CC2)cc1 [Example 26, 1-{1-[4-(2-hydroxyethoxy)phenethyl]piperidin-4-yl}indoline] | – | 19.5 nM | 2.9 nM | 51.1 nM
O=C(CCl)NCc1ccc2ccn(C3CCN(CCc4ccc(F)cc4)CC3)c2c1 [Example 373, 1-[1-(4-fluorophenethyl)piperidin-4-yl]-6-chloroacetamidomethylindole] | 143 to 144 °C | 1.77 nM | 0.24 nM | –
